In PubChem BioAssay AID248 (DTP/NCI, 2004) one finds T/C data, which are given here for 15 molecules.

For this assay, the system named is L1210 leukemia ip in BDF1 mice, survival T/C. The experiment in a line: NCI In Vivo Anticancer Drug Screen. Data for tumor model L1210 Leukemia (intraperitoneal) in B6D2F1 (BDF1) mice. The conditions noted are these: endpoint: mean survival time, higher = longer survival. The procedure, abridged: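 Transplanted-tumor mice were given test agent; controls received vehicle only. Survival readings from the two groups were divided (treated over control).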

Where [1] appears, read: dose: 50.0 mg/kg/injection, schedule: Q01DX009 (ip), vehicle: Klucel (hydroxypropylcellulose) (HPC).
[2] abbreviates: dose: 100.0 mg/kg/injection, schedule: Q04DX003 (ip), vehicle: Klucel (hydroxypropylcellulose) (HPC).
Setting [3] is: dose: 200.0 mg/kg/injection, schedule: Q04DX003 (ip), vehicle: Klucel (hydroxypropylcellulose) (HPC).
[4] abbreviates: dose: 100.0 mg/kg/injection, schedule: Q04DX003 (ip), vehicle: saline.
Setting [5] is: dose: 200.0 mg/kg/injection, schedule: Q04DX003 (ip), vehicle: saline.
The mark [6] stands for this setting: dose: 100.0 mg/kg/injection, schedule: Q01DX009 (ip), vehicle: saline with Tween-80.
[7] abbreviates: dose: 200.0 mg/kg/injection, schedule: Q01DX009 (ip), vehicle: saline with Tween-80.
Where [8] appears, read: dose: 400.0 mg/kg/injection, schedule: Q01DX009 (ip), vehicle: saline with Tween-80.

SMILES strings stand for the structures. Values joined by “and” are separate entries in the source; they are usually repeats but may differ in a detail not shown here. Identical values can stand only once. Inconclusive results and toxic doses are left out.

Regarding `O=c1cc(-c2ccccc2)oc(-c2ccc(Cl)cc2)c1`, the T/C (dose: 25.0 mg/kg/injection, schedule: Q01DX009 (ip), vehicle: Klucel (hydroxypropylcellulose) (HPC)) is 98 % of control; the T/C under setting [1] is 98 % of control; the T/C (dose: 100.0 mg/kg/injection, schedule: Q01DX009 (ip), vehicle: Klucel (hydroxypropylcellulose) (HPC)) is 100 % of control; the T/C under setting [2] is 97 % of control; the T/C under setting [3] was 90 % of control; the T/C (dose: 400.0 mg/kg/injection, schedule: Q04DX003 (ip), vehicle: Klucel (hydroxypropylcellulose) (HPC)) is 100 % of control.
Consider `O=C(Cc1ccccc1)Nc1cccc(O)c1`, for which the T/C is, setting by setting: (dose: 100.0 mg/kg/injection, schedule: Q01DX001 (ip), vehicle: saline with Tween-80) 97 % of control; (dose: 200.0 mg/kg/injection, schedule: Q01DX001 (ip), vehicle: saline with Tween-80) 96 % of control; (dose: 400.0 mg/kg/injection, schedule: Q01DX001 (ip), vehicle: saline with Tween-80) 95 % of control.
`COc1cc(C=Nc2ccccc2)ccc1OC(=O)c1ccccc1`: the T/C (dose: 100.0 mg/kg/injection, schedule: Q04DX002 (ip), vehicle: gum acacia) was 103 % of control; the T/C (dose: 200.0 mg/kg/injection, schedule: Q04DX002 (ip), vehicle: gum acacia) was 95 % of control; the T/C (dose: 400.0 mg/kg/injection, schedule: Q04DX002 (ip), vehicle: gum acacia) was 88 % of control.
On to `CC(=O)OC1CCC2(C)C(=CCC3C2CCC2(C)C3CC3C(c4ccccc4F)=NN(c4ccccc4)C32C#N)C1` (stereo not drawn), for which the T/C runs as follows: (dose: 100.0 mg/kg/injection, schedule: Q04DX002 (ip), vehicle: Klucel (hydroxypropylcellulose) (HPC)) 106 % of control; (dose: 200.0 mg/kg/injection, schedule: Q04DX002 (ip), vehicle: Klucel (hydroxypropylcellulose) (HPC)) 95 % of control; (dose: 400.0 mg/kg/injection, schedule: Q04DX002 (ip), vehicle: Klucel (hydroxypropylcellulose) (HPC)) 95 % of control.
Take `CCC[N+](C)(C)CCOC(=O)C1C2CC3OC(=O)C1C3C2` (stereo not drawn): the T/C under setting [4] was 97 % of control and the T/C under setting [5] is 95 % of control.
As for `C[n+]1ccc(NC(=O)c2ccc(NC(=O)c3ccc(C(=O)Nc4ccc(C(=O)Nc5cc[n+](C)cc5)cc4)cc3)cc2)cc1`, the T/C is, setting by setting: (dose: 62.0 mg/kg/injection, schedule: Q01DX Z (ip), vehicle: carboxymethylcellulose (CMC)) 103 % of control; (dose: 100.0 mg/kg/injection, schedule: Q01DX001 (ip), vehicle: other) 97 % of control; under setting [6], 105 % of control; (dose: 100.0 mg/kg/injection, schedule: Q04DX003 (ip), vehicle: other) 101 % of control; (dose: 125.0 mg/kg/injection, schedule: Q01DX Z (ip), vehicle: carboxymethylcellulose (CMC)) 118 % of control; (dose: 200.0 mg/kg/injection, schedule: Q01DX001 (ip), vehicle: other) 104 % of control. For the same molecule, the T/C runs as follows: under setting [7], 115 % of control; (dose: 200.0 mg/kg/injection, schedule: Q04DX003 (ip), vehicle: other) 103 % of control; (dose: 400.0 mg/kg/injection, schedule: Q01DX001 (ip), vehicle: other) 103 % of control; under setting [8], 114 % of control; (dose: 400.0 mg/kg/injection, schedule: Q04DX003 (ip), vehicle: other) 98 % of control; (dose: 500.0 mg/kg/injection, schedule: Q01DX Z (ip), vehicle: carboxymethylcellulose (CMC)) 152 % of control.
Take `CCCC1c2ccccc2-c2ccc(C(C)=O)cc21` (stereo not drawn): the T/C (dose: 100.0 mg/kg/injection, schedule: Q01DX001 (ip), vehicle: carboxymethylcellulose (CMC)) was 97 % of control; the T/C (dose: 200.0 mg/kg/injection, schedule: Q01DX001 (ip), vehicle: carboxymethylcellulose (CMC)) is 92 % of control; the T/C (dose: 400.0 mg/kg/injection, schedule: Q01DX001 (ip), vehicle: carboxymethylcellulose (CMC)) was 97 % of control.
`O=S(=O)(O)c1cccc(N=Nc2c(S(=O)(=O)O)cc3cc(S(=O)(=O)O)c(N=Nc4cccc(S(=O)(=O)O)c4)c(O)c3c2O)c1`: the T/C reads like this: under setting [6], 109 % of control; under setting [4], 116 % of control; under setting [7], 97 % of control; under setting [5], 111 % of control; under setting [8], 108 % of control; (dose: 400.0 mg/kg/injection, schedule: Q04DX003 (ip), vehicle: saline) 103 % of control.
As to `CSC(=S)NNC(=O)c1ccc(C(F)(F)F)cc1`, the T/C by setting is: (dose: 10.0 mg/kg/injection, schedule: Q04DX003 (ip), vehicle: saline) 106 % of control; (dose: 20.0 mg/kg/injection, schedule: Q04DX003 (ip), vehicle: saline) 106 % of control; (dose: 40.0 mg/kg/injection, schedule: Q04DX003 (ip), vehicle: saline) 105 % of control.
As to `COC/C(C)=C/Br`, the T/C is 97 % of control (dose: 100.0 mg/kg/injection, schedule: Q01DX009 (ip), vehicle: acetone); 94 % of control (dose: 200.0 mg/kg/injection, schedule: Q01DX009 (ip), vehicle: acetone); 94 % of control (dose: 400.0 mg/kg/injection, schedule: Q01DX009 (ip), vehicle: acetone).
Regarding `Oc1ccc[n+](CCCl)c1`, the T/C was 96 % of control (dose: 6.25 mg/kg/injection, schedule: Q01DX015 (ip), vehicle: saline); 100 % of control (dose: 12.5 mg/kg/injection, schedule: Q01DX015 (ip), vehicle: saline); 104 % of control (dose: 25.0 mg/kg/injection, schedule: Q01DX015 (ip), vehicle: saline); 100 % of control (dose: 50.0 mg/kg/injection, schedule: Q01DX015 (ip), vehicle: saline); 100 % of control (dose: 100.0 mg/kg/injection, schedule: Q01DX015 (ip), vehicle: saline); 96 % of control (dose: 200.0 mg/kg/injection, schedule: Q01DX015 (ip), vehicle: saline). The T/C (dose: 300.0 mg/kg/injection, schedule: Q01DX015 (ip), vehicle: saline) was 100 % of control.
In the case of `Oc1ccc2c(c1)CCCC2`, the T/C (dose: 75.0 mg/kg/injection, schedule: Q04DX003 (ip), vehicle: saline) is 102 % of control.
For the molecule `CC(=O)OC1=NC(C)c2c1cc(OC(C)=O)[nH]c2=O` (stereo not drawn), the T/C is 102 % of control under setting [1], 108 % of control under setting [2] and 115 % of control under setting [3].
`Cc1c2ccccc2c(CSC(=N)N)c2ccccc12`: the T/C is 119 % of control (dose: 4.0 mg/kg/injection, schedule: Q01DX009 (ip), vehicle: saline sonified); 112 % of control (dose: 4.0 mg/kg/injection, schedule: Q01DX009 (ip), vehicle: saline with Tween-80); 120 % of control (dose: 4.0 mg/kg/injection, schedule: Q01DX009 (ip), vehicle: saline); 109 % of control (dose: 6.25 mg/kg/injection, schedule: Q01DX009 (ip), vehicle: saline); 98 % of control (dose: 6.25 mg/kg/injection, schedule: Q04DX003 (ip), vehicle: saline); 117 % of control (dose: 8.0 mg/kg/injection, schedule: Q01DX009 (ip), vehicle: saline sonified). In addition, the T/C (dose: 8.0 mg/kg/injection, schedule: Q01DX009 (ip), vehicle: saline with Tween-80) was 119 % of control; the T/C (dose: 12.5 mg/kg/injection, schedule: Q01DX009 (ip), vehicle: saline sonified) was 150 % of control; the T/C (dose: 12.5 mg/kg/injection, schedule: Q01DX009 (ip), vehicle: saline with Tween-80) was 108 % of control; the T/C (dose: 12.5 mg/kg/injection, schedule: Q01DX009 (ip), vehicle: saline) is 123 % of control; the T/C (dose: 12.5 mg/kg/injection, schedule: Q04DX003 (ip), vehicle: saline) was 108 % of control; the T/C (dose: 18.75 mg/kg/injection, schedule: Q01DX009 (ip), vehicle: saline sonified) was 95 % of control. The T/C (dose: 18.75 mg/kg/injection, schedule: Q01DX009 (ip), vehicle: saline with Tween-80) is 87 % of control; the T/C (dose: 25.0 mg/kg/injection, schedule: Q01DX009 (ip), vehicle: saline) was 93 % of control; the T/C (dose: 25.0 mg/kg/injection, schedule: Q04DX003 (ip), vehicle: saline) was 114 % of control and 118 % of control.
Turning to `[N-]=[N+]=Nc1c(N=[N+]=[N-])c(NS(=O)(=O)c2ccccc2)c2ccccc2c1NS(=O)(=O)c1ccccc1`, the T/C (dose: 100.0 mg/kg/injection, schedule: Q04DX002 (ip), vehicle: saline with Tween-80) is 87 % of control; the T/C (dose: 200.0 mg/kg/injection, schedule: Q04DX002 (ip), vehicle: saline with Tween-80) is 97 % of control; the T/C (dose: 400.0 mg/kg/injection, schedule: Q04DX002 (ip), vehicle: saline with Tween-80) was 97 % of control.
